Data from publication PMC9389804 (Journal of Hematology & Oncology, 2022).
Where “and” joins values, the source holds several entries; their conditions need not be identical. Equal values may be shown once.

Assay: safety assessments (adverse events, NCI CTCAE)
Conditions: for Treatment-related cardiovascular events: G 3/4
[1] = AE resulting in dose interruption, Total n=165
[2] = AE resulting in dose reduction, Accelerated phase n=38
[3] = AE resulting in dose reduction, Chronic phase n=127
[4] = AE resulting in dose reduction, Total n=165
[5] = AE resulting in treatment discontinuation, Accelerated phase n=38
[6] = AE resulting in treatment discontinuation, Chronic phase n=127
[7] = AE resulting in treatment discontinuation, Total n=165
[8] = CVE possibly related to olverembatinib, all 165 patients
[9] = CVEs possibly related to olverembatinib

Procedure: Adverse events were assessed continuously and graded according to NCI CTCAE v5.0.18. Complete blood count with differential, serum chemistries, and physical examinations were performed before the study; weekly during Cycles 1 and 2; on alternate weeks in Cycles 3 and 4; and monthly thereafter.

Cc1ccc(C(=O)Nc2ccc(CN3CCN(C)CC3)c(C(F)(F)F)c2)cc1C#Cc1cnc2[nH]ncc2c1 [olverembatinib]
19 (15) n (%): Thrombocytopenia [3]
11.5%: G3/4 cardiovascular events [9]
1.2%: Palpitations [8]
5 (13.2) n (%): Nonhaematologic [2]
58 (45.7%) n (%) and 58 (45.7) n (%): Adverse events resulting in dose interruption (Chronic phase n=127)
11 months: median time on treatment to cardiovascular events (CVEs) [9]
6 (3.6) n (%): Nonhaematologic [7] | Thrombocytopenia [7]
4 (10.5) n (%): Adverse events resulting in treatment discontinuation (Accelerated phase n=38) | Treatment-related cardiovascular events (Accelerated phase n=38)
< 1%: angina pectoris, arrhythmia, atrial tachycardia, cardiomegaly, cerebral ischemia, and/or cerebral infarction [8]
1 (0.8) n (%): Acute coronary syndrome [3] | Arteriosclerosis coronary artery [3] | Asthenia [3] | Cerebral infarction [3] | Chest discomfort [3] | Dyspnea [3] | Electrocardiogram QT prolonged [3] | Glaucoma [3] | Hyperbilirubinaemia [3] | Hyperglycaemia [3] | Hypertriglyceridaemia [3] | Proteinuria [3] | Subileus [3] | Acute myocardial infarction [6] | Breast cancer [6] | Febrile neutropenia [6] | Lacunar infarction [6] | Proteinuria [6] | Retinal-vein occlusion [6]
7 (18.4) n (%): Thrombocytopenia [2]
28 (73.7%) n (%) and 28 (73.7) n (%): Adverse events resulting in dose interruption (Accelerated phase n=38)
8.5%: Pericardial effusion [8]
26 (15.8) n (%): Thrombocytopenia [4]
15 (11.8) n (%): Treatment-related cardiovascular events (Chronic phase n=127)
4.2%: Ventricular extrasystoles [8]
3 (2.4) n (%): Thrombocytopenia [6]
7 (4.2) n (%): Hematologic [7]
3.0%: Atrial fibrillation [8] | Supraventricular extrasystoles [8]
1.8%: Retinal-vein occlusion [8]
10 (26.3) n (%): Hematologic adverse events [2]
19 (11.5) n (%): Treatment-related cardiovascular events (Total n=165)
5 (3.0) n (%): Neutropenia [1]
1 (2.6) n (%): Anemia [2] | Arthralgia [2] | Atrial fibrillation [2] | Hyperbilirubinaemia [2] | Hyperglycaemia [2] | Hypokalemia [2] | Neutropenia [2] | Seronegative arthritis [2] | Nonhaematologic [5] | Pericardial effusion [5]
2 (1.6) n (%): Anemia [3] | Increased creatine phosphokinase [3] | Neutropenia [3] | Retinal-vein occlusion [3]
59 (35.8) n (%): Thrombocytopenia [1]
48 (29.1) n (%): Nonhematologic [1]
20 (15.7) n (%): Hematologic adverse events [3]
3 (7.9) n (%): Hematologic [5] | Thrombocytopenia [5]
30 (18.2) n (%): Hematologic adverse events [4]
1 (0.6) n (%): Musculoskeletal pain [1] | Myocardial strain [1] | Pain [1] | Pain in extremity [1] | Pericardial effusion [1] | Peripheral swelling [1] | Proteinuria [1] | Pulmonary arterial hypertension [1] | Pulmonary tuberculosis [1] | Rash [1] | Refraction disorder [1] | Sinus bradycardia [1] | Skin mass [1] | Superior mesenteric artery syndrome [1] | Supraventricular extrasystoles [1] | Swelling [1] | Urinary sediment present [1] | Acute coronary syndrome [4] | Arteriosclerosis coronary artery [4] | Arthralgia [4] | Asthenia [4] | Atrial fibrillation [4] | Cerebral infarction [4] | Chest discomfort [4] | Dyspnea [4] | Electrocardiogram QT prolonged [4] | Glaucoma [4] | Hypertriglyceridaemia [4] | Hypokalemia [4] | Proteinuria [4] | Seronegative arthritis [4] | Subileus [4] | Acute myocardial infarction [7] | Breast cancer [7] | Febrile neutropenia [7] | Lacunar infarction [7] | Pericardial effusion [7] | Proteinuria [7] | Retinal-vein occlusion [7]
14 (36.8%) n (%) and 14 (36.8) n (%): Adverse events resulting in dose reduction (Accelerated phase n=38)
0 n (%): Acute coronary syndrome [2] | Arteriosclerosis coronary artery [2] | Asthenia [2] | Cerebral infarction [2] | Chest discomfort [2] | Dyspnea [2] | Electrocardiogram QT prolonged [2] | Glaucoma [2] | Hypertriglyceridaemia [2] | Increased creatine phosphokinase [2] | Proteinuria [2] | Retinal-vein occlusion [2] | Subileus [2] | Arthralgia [3] | Atrial fibrillation [3] | Hypokalemia [3] | Leukopenia [3] | Seronegative arthritis [3] | Acute myocardial infarction [5] | Breast cancer [5] | Febrile neutropenia [5] | Lacunar infarction [5] | Proteinuria [5] | Retinal-vein occlusion [5] | Pericardial effusion [6]
3 (1.8) n (%): Pyrexia [1] | Anemia [4] | Neutropenia [4]
5 (3.9) n (%): Nonhaematologic [6]
4 (3.1) n (%): Hematologic [6]
21 (12.7) n (%): Nonhaematologic [4]
16 (12.6) n (%): Nonhaematologic [3]
2 (5.3) n (%): Leukopenia [2]
9 (7.1) n (%): Adverse events resulting in treatment discontinuation (Chronic phase n=127)
2 (1.2) n (%): Pneumonia [1] | Sinus tachycardia [1] | Upper-respiratory-tract infection [1] | Hyperbilirubinaemia [4] | Hyperglycaemia [4] | Increased creatine phosphokinase [4] | Leukopenia [4] | Retinal-vein occlusion [4]
36 (28.3%) n (%) and 36 (28.3) n (%): Adverse events resulting in dose reduction (Chronic phase n=127)
